In patent US12472177B2, “Bicyclic compounds and methods for their use in treating Pitt Hopkins syndrome” (NEUREN PHARMACEUTICALS LIMITED, priority 2019, dated 2025):

Assays:
Tcf4^+/− mice [1] = experiment: Fear conditioning (time freezing); assay type: in vivo, mouse; design: key to Fear Conditioning: Tukey’s Multiple Comparisons Test Summary: **** = p < 0.00001; ns = not significant
Method: (§1) In vivo behavioral studies were conducted in Tcf4^+/− mutant and wildtype littermate control (WT) mice by Gen.DDI (Santiago, Chile). Littermate controls consist of the genotypes Tcf4^+/+. All Tcf4 mutant mice used were heterozygous for the Tcf4 mutation because homozygous mutations of Tcf4 result in embryonic to postnatal day 1 lethality. Ten mice per treatment group, 14 weeks of age, were used for behavioral experiments. Experiments were conducted in line with the requirements of the UK Animals (Scientific Procedures) Act, 1986. The mice were housed in plastic cages (35×30×12 cm), 5 in each and habituated to the animal facilities for at least a week before commencing the test. The room temperature (21° C.±2° C.), relative humidity (55%±5%), a 12-hour light-dark cycle (lights on 7 AM to 7 PM), and air exchange were automatically controlled. The animals had free access to commercial food pellets and water. Testing was performed during the light phase of the circadian cycle, with the order of testing being determined by the principle of conducting the most stressful tests last. Assays were designed to reproduce and expand on the original behavioral characterization of Tcf4^+/− mice. Tcf4^+/− and WT control mice were treated for 6 weeks prior to testing and tested 30 minutes following a dose of cG-2-AllylP, as described in Table 2 below.
Fear conditioning to either an event or a context represents a form of associative learning that has been well studied in many species. In mice, fear is often shown as stopping movement, also known as freezing behavior. Freezing is adaptive for prey species because predators often locate moving prey. The dependent measure used in contextual (delay) fear conditioning is a freezing response that takes place following pairing of an unconditioned stimulus (foot shock), with a conditioned stimulus (CS; e.g., an audible tone), a particular context and/or such a cue. If in a conditioning context one administers a foot shock that is paired with a tone, there will be learning not only to the tone, but also to the context.
Contextual fear conditioning is a basic conditioning procedure. It involves taking an animal and placing it in a novel environment, providing an aversive stimulus, and then removing it. […] Freezing is a response to fear, which has been defined as “absence of movement except for respiration.” This freezing behavior may last from seconds to minutes depending on the strength of the aversive stimulus, the number of presentations, and the degree of learning achieved by the subject.
Animals with the Tcf4^+/− mutation show less freezing behavior than wild type mice. This maladaptive behavior can have serious consequences. Therefore, to determine if NNZ-2591 (cG-2-AllylP) can restore normal fear conditioning in Tcf4^+/− mice, we carried out a series of studies.
The percent of time spent in freezing over a 5-minute test period is shown on the vertical axis of FIG. 4. Animals and their treatments are shown on the horizontal axis.

Tcf4^+/− mice [2] = experiment: Social interaction / sociability (time sniffing a novel mouse); assay type: in vivo; design: key to Sociability: Tukey’s Multiple Comparison Test Summary: **** = p < 0.00001; ns = not significant
Method: as §1
Social recognition and social memory in humans are very important. People with PTHS show lower amounts of social recognition and memory compared with people without PTHS. […] Therefore, to determine if NNZ-2591 (cG-2-AllylP) could be effective in normalizing this condition, we carried out a series of studies in mice, in which we determined the amount of time that mice spent sniffing a novel mouse.
To carry out these studies, mice were evaluated by the amount of time spent sniffing a novel mouse upon repeated exposures, to induce familiarity, and reinstatement of high levels of sniffing when a novel stimulus animal is introduced. We measured the number of bouts of sniffing in each of the groups of animals. The time spent sniffing a novel mouse is shown on the vertical axis and the animals and treatments are shown on the horizontal axis.

Tcf4^+/− mice [3] = experiment: Tcf4^+/− mouse model of Pitt Hopkins Syndrome, all tested behaviors (summary); assay type: in vivo
Method: Several genetically manipulated rodent models of PTHS have been created (Thaxton et al, 2018; Sweatt, 2013). These models share a common basis around heterozygous Tcf4 (Tcf4^+/−). Haploinsufficient mice (Tcf4^+/−) have been characterized as a model system for PTHS (Kennedy et al, 2016).
as §1

[4] = Tcf4^+/− + cG-2-AllylP (100 mg/kg) vs WT + cG-2-AllylP (200 mg/kg)
[5] = Tcf4^+/− + vehicle vs Tcf4^+/− + cG-2-AllylP (100 mg/kg)
[6] = Tcf4^+/− + vehicle vs Tcf4^+/− + cG-2-AllylP (200 mg/kg)
[7] = Tcf4^+/− + vehicle vs WT + cG-2-AllylP (100 mg/kg)
[8] = Tcf4^+/− + vehicle vs WT + cG-2-AllylP (200 mg/kg)
[9] = WT + cG-2-AllylP (100 mg/kg) vs Tcf4^+/− + cG-2-AllylP (100 mg/kg)
[10] = WT + cG-2-AllylP (100 mg/kg) vs Tcf4^+/− + cG-2-AllylP (200 mg/kg)
[11] = WT + cG-2-AllylP (100 mg/kg) vs WT + cG-2-AllylP (200 mg/kg)
[12] = WT + cG-2-AllylP (200 mg/kg) vs Tcf4^+/− + cG-2-AllylP (200 mg/kg)
[13] = WT + vehicle vs Tcf4^+/− + cG-2-AllylP (100 mg/kg)
[14] = WT + vehicle vs Tcf4^+/− + cG-2-AllylP (200 mg/kg)
[15] = WT + vehicle vs WT + cG-2-AllylP (100 mg/kg)
[16] = WT mice, 100 mg/kg oral BID 6 weeks
[17] = WT mice, 200 mg/kg oral BID 6 weeks

C=CC[C@]12CCCN1C(=O)CNC2=O [cG-2-AllylP, (8aS)-Allyl-hexahydropyrrolo[1,2-a]pyrazine-1,4-dione]
Fear Conditioning: Tukey’s Multiple Comparisons Test Summary (Tcf4^+/− mice [1]; Tcf4^+/− + cG-2-AllylP (100 mg/kg) vs Tcf4^+/− + cG-2-AllylP (200 mg/kg)): *** (*** = p < 0.001) | Fear Conditioning: Tukey’s Multiple Comparisons Test Summary (Tcf4^+/− mice [1]; [4]): **** (**** = p < 0.0001) | Fear Conditioning: Tukey’s Multiple Comparisons Test Summary (Tcf4^+/− mice [1]; [5]): **** (**** = p < 0.0001) | Fear Conditioning: Tukey’s Multiple Comparisons Test Summary (Tcf4^+/− mice [1]; [6]): **** (**** = p < 0.0001) | Fear Conditioning: Tukey’s Multiple Comparisons Test Summary (Tcf4^+/− mice [1]; [7]): **** (**** = p < 0.0001) | Fear Conditioning: Tukey’s Multiple Comparisons Test Summary (Tcf4^+/− mice [1]; [8]): **** (**** = p < 0.0001) | Time spent in freezing behavior over a 5-minute test period (Tcf4^+/− mice [1]; Tcf4^+/− mice, 100 mg/kg oral BID 6 weeks, 100 mg/kg): improved but remained significantly different to Wild Type | Behavior Normalized to WildType Levels: Fear Con (Tcf4^+/− mice [1]; Tcf4^+/− mice, 200 mg/kg): ✓ | Fear Conditioning: Tukey’s Multiple Comparisons Test Summary (Tcf4^+/− mice [1]; [9]): ns | Fear Conditioning: Tukey’s Multiple Comparisons Test Summary (Tcf4^+/− mice [1]; [10]): nx | Fear Conditioning: Tukey’s Multiple Comparisons Test Summary (Tcf4^+/− mice [1]; [11]): ns | Fear Conditioning: Tukey’s Multiple Comparisons Test Summary (Tcf4^+/− mice [1]; [12]): ns | Fear Conditioning: Tukey’s Multiple Comparisons Test Summary (Tcf4^+/− mice [1]; [13]): * (* = p < 0.05) | Fear Conditioning: Tukey’s Multiple Comparisons Test Summary (Tcf4^+/− mice [1]; [14]): ns | Fear Conditioning: Tukey’s Multiple Comparisons Test Summary (Tcf4^+/− mice [1]; [15]): ns | Fear Conditioning: Tukey’s Multiple Comparisons Test Summary (Tcf4^+/− mice [1]; WT + vehicle vs WT + cG-2-AllylP (200 mg/kg)): ns | Time spent in freezing behavior over a 5-minute test period (Tcf4^+/− mice [1]; [16]): about the same amount of time in freezing behavior as did vehicle-treated WT mice | Time spent in freezing behavior over a 5-minute test period (Tcf4^+/− mice [1]; [17]): about the same amount of time in freezing behavior as did vehicle-treated WT mice | Sociability: Tukey’s Multiple Comparison Test Summary (Tcf4^+/− mice [2]; Tcf4^+/− + cG-02-AllylP (100 mg/kg) vs Tcf4^+/− + cG-2-AllylP (200 mg/kg)): ns | Sociability: Tukey’s Multiple Comparison Test Summary (Tcf4^+/− mice [2]; [4]): ns | Sociability: Tukey’s Multiple Comparison Test Summary (Tcf4^+/− mice [2]; [5]): **** (**** = p < 0.0001) | Sociability: Tukey’s Multiple Comparison Test Summary (Tcf4^+/− mice [2]; [6]): **** (**** = p < 0.0001) | Sociability: Tukey’s Multiple Comparison Test Summary (Tcf4^+/− mice [2]; [7]): **** (**** = p < 0.0001) | Sociability: Tukey’s Multiple Comparison Test Summary (Tcf4^+/− mice [2]; [8]): **** (**** = p < 0.0001) | Behavior Normalized to WildType Levels: Sociability (Tcf4^+/− mice [2]; Tcf4^+/− mice, 100 mg/kg): ✓ | Time spent sniffing a novel mouse (Tcf4^+/− mice [2]; Tcf4^+/− mice, 100 mg/kg oral BID 6 weeks, compared to Tcf4^+/− mice treated with vehicle only): substantial and statistically significant increases | Behavior Normalized to WildType Levels: Sociability (Tcf4^+/− mice [2]; Tcf4^+/− mice, 200 mg/kg): ✓ | Time spent sniffing a novel mouse (Tcf4^+/− mice [2]; Tcf4^+/− mice, 200 mg/kg oral BID 6 weeks, compared to Tcf4^+/− mice treated with vehicle only): substantial and statistically significant increases | Sociability: Tukey’s Multiple Comparison Test Summary (Tcf4^+/− mice [2]; [9]): ns | Sociability: Tukey’s Multiple Comparison Test Summary (Tcf4^+/− mice [2]; [10]): ns | Sociability: Tukey’s Multiple Comparison Test Summary (Tcf4^+/− mice [2]; [11]): ns | Sociability: Tukey’s Multiple Comparison Test Summary (Tcf4^+/− mice [2]; [12]): ns | Sociability: Tukey’s Multiple Comparison Test Summary (Tcf4^+/− mice [2]; [13]): ns | Sociability: Tukey’s Multiple Comparison Test Summary (Tcf4^+/− mice [2]; [14]): ns | Sociability: Tukey’s Multiple Comparison Test Summary (Tcf4^+/− mice [2]; [15]): ns | Time spent sniffing a novel mouse (Tcf4^+/− mice [2]; [16]): nearly identical times | Time spent sniffing a novel mouse (Tcf4^+/− mice [2]; [17]): nearly identical times | Rescue of tested behaviors of the PTHS phenotype (Tcf4^+/− mice [3]; Tcf4^+/− mice, 100 mg/kg for 6 weeks): rescued all tested behaviors, except for fear conditioning | Rescue of tested behaviors of the PTHS phenotype (Tcf4^+/− mice [3]; Tcf4^+/− mice, 200 mg/kg for 6 weeks): rescued all tested behaviors of the PTHS phenotype | Rescue of the phenotype of the Tcf4^+/− knockout mouse model (Tcf4^+/− mice [3]; Tcf4^+/− mice, oral administration for 6 weeks): can rescue the phenotype | Impact on wild type control mice (Tcf4^+/− mice [3]; WT mice, oral administration for 6 weeks): no impact
